Publication PMC5618418, “Pharmacokinetics of Jaspine B and Enhancement of Intestinal Absorption of Jaspine B in the Presence of Bile Acid in Rats” (Marine Drugs, 2017)

Legend:
[1] = Metabolic stability in rat liver microsomes; type: in vitro ADME; details: 1 μM, rat liver microsomes, NADPH-generating system, 60 min, 37 °C
Protocol: Jaspine B (1 μM) was reconstituted in 100 mM potassium phosphate buffer (pH 7.4) containing 0.25 mg of RLMs and was pre-incubated for 5 min at 37 °C. The reaction was initiated by adding an NADPH-generating system (1.3 mM β-NADP, 3.3 mM glucose-6-phosphate, 3.3 mM MgCl2, and 1.0 unit/mL glucose-6-phosphate dehydrogenase) and then incubated (final volume 100 μL) for 0, 15, 30, and 60 min at 37 °C in a shaking water bath. The reaction was stopped by placing the incubation tubes on ice and adding 200 μL of ice-cold acetonitrile containing 0.5 ng/mL of berberine. After vortexing for 10 min and centrifugation at 13,200 rpm for 5 min, 2 μL of the supernatant was injected directly into the LC-MS/MS system.

in vitro = in vitro ADME, rat
Protocol: For the measurement of the effect of TC on the tight junction of biological membranes, the permeability of 50 μM Lucifer yellow, a marker of paracellular permeation, was measured in the presence of TC (0, 0.1, 1, 10, 100 mM). Prior to the experiment, ileal segments from SD rats (about 20 cm) were placed in the chambers and were submerged in fresh, prewarmed (37 °C) HBSS for 15 min for acclimatization. The chambers were continuously bubbled with carbogen gas (5% CO2/ 95% O2) during the experiment. The experiments began by replacing the HBSS with HBSS containing 50 μM Lucifer yellow and various concentrations of TC on the apical side (A) and adding fresh HBSS to the basal side (B). Aliquots (400 μL) of media were withdrawn from the receiver compartment (B) after 0, 20, 40, 60, and 80 min, and the volume of liquid in the receiver compartment was replenished with fresh, prewarmed HBSS after each sampling. Aliquots (200 μL) of all samples were used for the determination of Lucifer yellow concentration. The fluorescence of Lucifer yellow in the samples was measured using a fluorescence spectrophotometer (Infinite 200 PRO, Tecan, Switzerland) with excitation at 425 nm and emission at 535 nm.
A to B and B to A permeability of Jaspine B was measured in the presence of TC and rat bile. One mL of HBSS containing 50 μM Jaspine B and 10 mM TC or 20% bile was added to the donor side and 1 mL of preheated fresh HBSS was added to the receiver side. Aliquots (400 μL) of media were withdrawn at 0, 20, 40, 60, and 80 min from the receiver compartment as described above. Aliquots (50 μL) of all samples were stored at −80 °C until analysis.
Aliquots (50 μL) of all samples were added to 250 μL of acetonitrile containing 0.5 ng/mL of berberine. After vortexing for 10 min and centrifugation at 13,200 rpm for 5 min, 2 μL of the supernatant was injected directly into the LC-MS/MS system.
The apparent permeability (Papp) of the drug was calculated by dividing the initial drug transport rate (dQ/dt, pmol/min) by the initial drug concentration in the donor compartment of the insert (Co) multiplied by the surface area of the insert (A, cm^2): (3) Papp=dQ/dt×1/ACo

| percentage remaining [1] [%] | increase of permeability caused by tight junction opening (in vitro) | permeability change (in vitro) | Compound |
| --- | --- | --- | --- |
| 63.4 | – | – | CN(C)C(=N)N=C(N)N [metformin, reference compound] |
| – | ~ 2.8 fold | sharp increase | Lucifer yellow [reference compound] |
